The values that follow come from a melting point compilation (Tetko et al.; mined from patent text by program, amines drawn as free bases though some values may be those of a salt).

The structures appear in SMILES notation. Bounds are passed on as bounds.

Regarding `CCC(C)(C)Nc1c(NCc2cc3cc(C#N)ccc3o2)c(=O)c1=O`, the melting point lay in the range of 171 to 173 °C. Molecule `O=C(NCCCCCCOC(=O)Oc1ccc([N+](=O)[O-])cc1)OC1CCN(C(=O)Oc2ccc(Oc3ccccc3)cc2)CC1` displayed a melting point of 117 to 120 °C. In the case of `CC(C)(C)OC(=O)Nc1ccc(C#Cc2ccccn2)cc1N`, the melting point turned out to be 178 °C. `N#Cc1cccc(-c2ccccn2)n1` registered a melting point of 136 to 137 °C. Turning to `O=C(c1ccccc1)c1ccc(F)c([N+](=O)[O-])c1`, the melting point was found to be 59 °C. The molecule `CC(=O)NC1CC(N)(C(=O)O)C2C(C(=O)O)C12` (stereo not given) gave a melting point of over 275 °C. `O=C1NC(=O)C(N(Cc2ccc(Br)cc2)c2ccc(CCNCC(O)COc3ccc(OCc4ccccc4)cc3)cc2)S1` (stereo not given) yielded a melting point of 50 to 52 °C. `COC(=O)c1ccc2c(c1)N(C(=O)c1ccc(C3CCCCC3)cc1)Cc1cccn1C2` gave a melting point of 174 to 176 °C. With `Cc1cc(C(=O)C2CCc3nc[nH]c3C2)c2ccccn12` (stereo not given) the figure was 219 to 221 °C; with `CCOC(=O)n1c(C(=O)c2cccc(Cl)c2)c(NC(=O)CC)c2ccc(Cl)cc21`, 189 to 191 °C; with `Cc1c(CCNC(=S)Nc2nccs2)cccc1C(F)(F)F`, 158 to 159 °C. In the case of `CS(=O)(=O)N[C@@H]1CCCC[C@H]1OCC(=O)O` (relative stereo) it was 119 to 121 °C.

On to `COc1ccc(CCCC(=O)CCC(=O)O)cc1`, for which the melting point was in the range of 88 to 89 °C.

Molecule `CCCCn1nnnc1-c1c(O)ccc(-c2cccc(C(=O)O)c2)c1O` came in with a melting point of 261 to 264 °C.

On to `CN(C)c1ccc(C(=O)c2cccc(N)c2)cc1`, for which the melting point was determined as 110 °C. Turning to `COC(=O)[C@H]1CC[C@@H](C(=O)O)CN1S(C)(=O)=O` (racemic), the melting point is 130 to 133 °C. `C[C@@H](O)c1nccc(N2CCN(c3nc4cccnc4o3)CC2)n1`: the melting point lay in the range of 153 to 156 °C. In turn, `CCOC(=O)c1cn2c(C)c(C)nc2c(NCc2c(C)cccc2CC)n1` gave a melting point of 144 °C.

With `BrCc1nc2cc(Br)ccc2s1`, the melting point came to 107 °C. In turn, `O=C(Nc1cc(N2CCNCC2)cc(C(F)(F)F)c1)c1cccc2cc(Oc3ccnc(NC(=O)C4CC4)c3)ccc12` came in with a melting point of 244 to 247 °C. The molecule `O=C(O)C(=NO)C(c1ccc(OCc2ccccn2)cc1)c1ccc(OCc2ccccn2)cc1` returned a melting point of 154 °C. For the molecule `COC(=O)c1cnc(COC(=O)C(C)(C)Oc2ccc(Cl)cc2)s1`, the melting point came to 80 °C.

In the case of `N#Cc1ccc(CCN2CCC(NC(=O)C34CC5CC(CC(C5)C3)C4)C2)cc1` (stereo not given), the melting point is 104 to 105 °C. The molecule `CN(Cc1ccccc1)c1nc(Cl)ncc1F` came in with a melting point of 47 to 49 °C. In the case of `O=C1c2c(O)ccc(O)c2C(=O)c2c(NCCNCCO)ccc(O)c21`, the melting point lay in the range of 196 to 198 °C. Turning to `O=C1c2cccc(SCCCCCCO)c2C(=O)c2cccc(SCCCCCCO)c21`, the melting point is 195 to 196 °C. Take `COc1ccc(C(=O)C=Cc2cccnc2)cc1`: the melting point lay within 113 to 114 °C. `CCCCOc1ccc(C#CC2(O)CN3CCC2CC3)cn1` (stereo not given) registered a melting point of 149 to 151 °C.

`Cc1cc(C)nc(S(=O)(=O)Nc2c(Cl)ccc(C)c2Cl)n1` showed a melting point of 234 to 235 °C. `CC(C)(C)OC(=O)NC1CCCCc2cc(OCC3CCCCC3)c(Br)cc21` (stereo not given) displayed a melting point of 142 to 144 °C.

`CC1NCCc2ccccc21` (stereo not given) displayed a melting point of 60 °C. Consider `CNC(=S)NCCCCCCc1csc(NC(=N)N)n1`, for which the melting point lay in the range of 162 to 164 °C. `O=C(O)c1ccc(N2CCOCC2)cc1C(=O)O` came in with a melting point of 178 to 180 °C. In turn, `CC(CSC(=O)c1ccccc1)C(=O)N(CC(=O)O)C1Cc2ccccc2C1` (stereo not given) yielded a melting point of 113 to 115 °C. As to `Cc1ccnc(C(O)c2ccc(N)cc2C(F)(F)F)c1` (stereo not given), the melting point was 120 to 123 °C.

In the case of `Cc1cc2cc(C(=O)O)[nH]c2cc1C`, the melting point was found to be 266 °C. In turn, `Brc1cccc(Nc2nc(OCC3CCCCC3)c3[nH]cnc3n2)c1` registered a melting point of 204 to 207 °C. In turn, `Nc1sc(CC(O)CO)cc1C(=O)c1ccccc1Cl` (stereo not given) registered a melting point of 136 to 137 °C. `CCC1Cc2c(O)cc(OC)cc2C(=O)O1` (stereo not given) showed a melting point of 167 to 168 °C.

In turn, `Cc1cc(CN2CCN(c3ccc(C(=O)NC4CC4)cc3F)CC2)cc2c1OC(C)C(=O)N2` (stereo not given) came in with a melting point of 253 °C. Molecule `CC(=Cc1ccc(C(C)(C)C)cc1)C(=O)NC(C)c1ccc(NS(C)(=O)=O)c(F)c1` (stereo not given) showed a melting point of 92 to 94 °C. In turn, `CC(=O)N(c1ccccn1)c1ncc(Br)s1` came in with a melting point of 132 to 138 °C. `CCC(COC)Nc1nc(C)nc2c1nnn2-c1ccc(C(C)C)cc1Br` (stereo not given) returned a melting point of 132 to 134 °C. In the case of `CS(=O)(=O)c1ccc(C(=O)C(=O)c2ccc(F)cc2)cc1` it was 174 to 175 °C.

With `CCC(=O)NC[C@H]1CN(c2ccc3c(c2)CCCc2cnoc2-3)C(=O)O1`, the melting point lay within 185 to 186 °C.

Regarding `COc1ccc(-c2cccc3ccsc23)cc1`, the melting point is 74 to 75 °C. With `CC1(C)CCC(C)(C)c2cc(C(=O)c3ccc4cc(C(=O)O)ccc4c3)ccc21` the figure was 224 °C. The molecule `CCON=C(C(=O)O)c1csc(NC(c2ccccc2)(c2ccccc2)c2ccccc2)n1` came in with a melting point of 200 °C. `C#CCN1CCCc2ccc(OC(=O)Nc3c(C)cccc3C(C)C)cc21` yielded a melting point of 120 °C.

Consider `C=CCN1CCC[C@H]1C(N)=O`, for which the melting point fell in the range of 79 to 81 °C. In turn, `CCOc1cccc2c(=O)c3ccccc3sc12` yielded a melting point of 112 to 115 °C. The molecule `COC(=O)c1ccc(S(=O)(=O)N2CC[C@H](O)C2)n1C` came in with a melting point of 108 to 109 °C. With `C#Cc1c(NC)c(F)cc2c(=O)c(C(=O)O)cn(-c3cc(N)c(F)cc3F)c12` the figure was 208 to 209 °C; with `CCn1nc(C)c2c1C(=O)NCC(c1ccccc1O)=N2`, 220 °C. `CCN1CCN(C)C[C@@H](NC(=O)c2cc(Br)c(NC)nc2OC)C1` showed a melting point of 52 to 55 °C. In the case of `CC(C)(C)c1cc(C2NC(=O)NC2c2ccccc2)cc(C(C)(C)C)c1O` (stereo not given) it was over 300 °C.

The molecule `O=C(Nc1nccs1)C(=O)c1cn(Cc2ccc(F)cc2)c2ccccc12` displayed a melting point of 233 to 237 °C. Consider `Cc1ccc(-c2cnn(C)c2)cc1`, for which the melting point is 107 to 108 °C. Regarding `Cn1c(I)nc2c(C(F)(F)F)nc(NCCc3ccccc3)nc21`, the melting point fell in the range of 139 to 142 °C. In the case of `COc1ccc(OC)c2c1Cc1c([nH]cnc1=O)N2` it was over 300 °C. With `C=CCNc1nc(NC(C)CC)c2scc(C)c2n1` (stereo not given), the melting point was 91 to 92 °C. In turn, `Brc1ccc2c(c1)oc1cc(Br)ccc12` showed a melting point of 199 to 200 °C.

The molecule `O=C(OCc1cc(-c2ccc(F)cc2F)ccc1O)c1cc(O)c2c(c1)C(=O)c1cccc(O)c1C2=O` yielded a melting point of 128 to 132 °C. Consider `CC(C)=CCC/C(C)=C/CSc1nc2cc(C(F)(F)F)ccc2[nH]1`, for which the melting point lay within 106 to 108 °C. `O=C(O)COc1cc2c(c(Cl)c1Cl)C(O)C1(CCCC1)C2` (stereo not given) showed a melting point of 135 °C.

`CCOC(=O)[C@H](Cc1ccc(O)cc1)NC(=O)c1c(F)cccc1Cl` returned a melting point of 144 to 145 °C.

With `Cn1c(NCCCOc2cccc(CN3CCCCC3)c2)nc2ccccc21`, the melting point was in the range of 153 to 154 °C. `Nc1nc2c(s1)CCN(CC=Cc1ccccc1[N+](=O)[O-])CC2` yielded a melting point of 125 to 128 °C. In turn, `NC(=O)c1ccc2cc(O)ccc2c1` returned a melting point of 205 to 206 °C.

The molecule `Cc1nc(C)c(Cl)c(NCc2nccc(CNCCO)c2Cl)n1` yielded a melting point of 162 to 165 °C. For `CCCc1ccc(OC)c(-c2csc(NC(=O)NN3CCN(CCCN4CCOCC4)CC3)n2)c1`, the melting point is 229 °C.

For `CCC1c2nc[nH]c2CCN1C(=O)NC` (stereo not given), the melting point came to 240 °C. The molecule `Cc1ccc(N)cc1Nc1nccc(-c2cncc(Br)c2)n1` came in with a melting point of 130 °C. In turn, `COc1ccccc1COc1ccc(S(=O)(=O)c2ccc(C)nc2Nc2ccc(OC(F)F)cc2Cl)cc1` displayed a melting point of 124 to 125 °C.

On to `Cc1cc(NC(=O)OC(C)(C)C)c([N+](=O)[O-])cc1C#Cc1ccccc1`, for which the melting point is 161 to 164 °C. As for `CCOC(=O)C1CN(S(=O)(=O)c2ccc3cc(Br)ccc3c2)CCN1C(=O)C1CCN(c2ccncc2)CC1` (stereo not given), the melting point was in the range of 117 to 121 °C. The molecule `CCOCC(=O)Nc1nc[nH]c1-c1n[nH]c(-c2ccc(-c3ccccc3)cc2)n1` displayed a melting point of 280 °C. For the molecule `CCCc1[nH]nc2c1C(=O)c1c(NC(N)=O)cccc1-2`, the melting point lay within 187 to 189 °C. Regarding `COc1cccc(C23CCN(Cc4ccccc4)C(CC(=O)C2)C3)c1` (stereo not given), the melting point lay within 108 to 109 °C. The molecule `OCC1OC(n2cnc3c(NCc4ccccc4)nc(Cl)nc32)CC1O` (stereo not given) displayed a melting point of 147 °C. With `COc1ccccc1N1CCN(CCn2c(=O)c3sccc3n(C(C)=O)c2=O)CC1` the figure was 156 to 158 °C. Regarding `Nc1c2c(nc3c(O)cccc13)CCC2`, the melting point lay in the range of 187 to 188 °C. Regarding `CC(C)(C)OC(=O)NC1CCN(CC23CC(c4ccccc42)c2ccccc23)CC1`, the melting point was 155 to 160 °C. Consider `COc1ccc(-n2nc3c(cc2=O)CCSc2sc(Br)cc2-3)cc1`, for which the melting point lay within 148 to 150 °C.

`Cc1ccc(NC(=O)C(C)(C)C)c(-c2cccc(-c3cc(C)ccc3NC(=O)C(C)(C)C)n2)c1` displayed a melting point of 181 to 184 °C. For `CC1(C)Oc2ccc(C#N)cc2[C@@H](NC(=S)Nc2ccccc2)[C@@H]1O` (relative stereo), the melting point lay in the range of 183 to 185 °C. In turn, `CC1C2C(C(=O)N1Cc1ccc3c(c1)OCO3)C(c1ccc(Br)cc1)N(C)C2(C)C` (stereo not given) had a melting point of 142 to 144 °C.

With `CCc1nc2ncnn2c(N)c1CCCCC(F)=C(F)F`, the melting point was 199 °C. For the molecule `O=C(c1ccc2c(c1)Cc1ccccc1-2)N1Cc2cccn2Cc2ccccc21`, the melting point lay in the range of 202 to 204 °C. In turn, `O=C1C=C(NC(=O)C(=O)c2cn(Cc3ccc(F)cc3)c3cc4c(cc23)OCO4)CO1` returned a melting point of 210 to 212 °C.

By melting point is commonly meant the temperature, or range, at which the solid turns liquid.
